Here are results for 19 compounds from patent publication US12319695B2, “Sulfonamide derivative with fused pyrimidine skeleton, having epidermal growth factor receptor mutation inhibitory effect” (HANMI PHARM. CO., LTD., priority 2018, dated 2025).

“Also recorded” adds a separate entry of the source.

The first assay concerns PC9 EGFR del19/T790M/C797S cells. The assay is described as follows: PC9 EGFR del19/T790M/C797S cell growth inhibition test (CellTiter-Glo, 72 hours). Format: cell-based. Particulars: Homo sapiens, PC-9, PC9 cell line overexpressing EGFR del19/T790M/C797S. The method, then:
For cell growth conditions, an RPMI Medium 1640 (1×) containing 10% FBS and 1% penicillin/straptomycin (Gibco BRL) was used.
Specifically, the cell line stored in a liquid nitrogen tank was taken out, rapidly dissolved at 37° C., and thereafter centrifuged to remove the cryopreservation medium. The recovered cell pellets were well mixed in a culture medium, put into a culture flask, and passaged under conditions of 37° C. and 5% carbon dioxide to stabilize the cells to logarithmic cell growth phase. Thereafter, cells were taken from the flask, centrifuged to remove the culture medium, washed with Dulbecco's phosphate buffered saline (DPBS), and then centrifuged again to remove DPBS, and then diluted with a culture medium to have 1×10^5 cells/ml. The diluted cells were dispensed into a 96-well plate at 100 μl per well. The compounds prepared in the above examples were each dissolved in 99.5% dimethylsulfoxide (hereinafter, DMSO, cell culture grade) to a concentration of 10 mM. The DMSO solution containing each compound was diluted with a culture medium to a concentration of 30 μM, and then tenfold serial dilution was used to prepare a solution diluted upto 0.3 nM (in order to reach a final DMSO concentration of 1% or less).
The cells treated with the test solution were cultured under conditions of 37° C. and 5% carbon dioxide for 72 hours. After the 96-well plate in which the cells were cultured was acclimated to room temperature for 30 minutes, CellTiter-Glo® Luminescent Cell Assay Reagent (CTG, Promega) was dispensed at 50 μl per well. After stabilizing luminescence signals for 10 minutes, the luminescence intensity was measured with a microplate reader.
Based on the measured value, a […] value of each compound, which is the concentration at which cell growth is inhibited by 50%, was calculated with respect to 100% of the value obtained by subtracting the initial cell density value of a well not treated with a test material from the final cell density value thereof. The GI50 value of each compound was calculated using nonlinear regression of GraphPad Prism; log[inhibitor] vs. normalized response analysis.
`CC(C)N1CCN(c2ccc(Nc3nc(Nc4ccccc4N(C)S(C)(=O)=O)c4cc[nH]c4n3)cc2F)CC1` [Example 9, N-(2-((2-((3-fluoro-4-(4-isopropylpiperazin-1-yl)phenyl)amino)-7H-pyrrolo[2,3-d]pyrimidine-4-yl)amino)phenyl)-N-methylmethanesulfonamide] gave a GI50 of 420 nM.
On the same count and under the same terms, then `CCCN1CCN(c2ccc(Nc3nc(Nc4ccccc4N(C)S(C)(=O)=O)c4cc[nH]c4n3)cc2F)CC1` [Example 10, N-(2-((2-((3-fluoro-4-(4-propylpiperazin-1-yl)phenyl)amino)-7H-pyrrolo[2,3-d]pyrimidine-4-yl)amino)phenyl)-N-methylmethanesulfonamide], with 538 nM.
The same measure, in the same setting: then `CN(c1ccccc1Nc1nc(Nc2ccc(N3CCN(C4CC4)CC3)c(F)c2)nc2[nH]ccc12)S(C)(=O)=O` [Example 11, N-(2-((2-((3-fluoro-4-(4-cyclopropylpiperazin-1-yl)phenyl)amino)-7H-pyrrolo[2,3-d]pyrimidine-4-yl)amino)phenyl)-N-methylmethanesulfonamide], with 641 nM.
For `CC(C)N1CCN(C2CCN(c3ccc(Nc4nc(Nc5ccccc5N(C)S(C)(=O)=O)c5cc[nH]c5n4)cc3F)CC2)CC1` [Example 15, N-(2-((2-((3-fluoro-4-(4-(4-isopropylpiperazin-1-yl)piperidin-1-yl)phenyl)amino)-7H-pyrrolo[2,3-d]pyrimidine-4-yl)amino)phenyl)-N-methylmethanesulfonamide], the GI50 amounted to 131 nM.
The same measure, in the same setting: then `CN(c1ccccc1Nc1nc(Nc2ccc(N3CCC(N4CCN(C5CC5)CC4)CC3)c(F)c2)nc2[nH]ccc12)S(C)(=O)=O` [Example 17, N-(2-((2-((3-fluoro-4-(4-(4-cyclopropylpiperazin-1-yl)piperidin-1-yl)phenyl)amino)-7H-pyrrolo[2,3-d]pyrimidine-4-yl)amino)phenyl)-N-methylmethanesulfonamide], with 311 nM; and `CCN1CCN(c2c(F)cc(Nc3nc(Nc4ccccc4N(C)S(C)(=O)=O)c4cc[nH]c4n3)cc2F)CC1` [Example 26, N-(2-((2-((4-(4-ethylpiperazin-1-yl)-3,5-difluorophenyl)amino)-7H-pyrrolo[2,3-d]pyrimidine-4-yl)amino)phenyl)-N-methylmethanesulfonamide], with 369 nM.
On the same count and under the same terms, then `CCN1CCN(c2ccc(Nc3nc(Nc4ccccc4NS(C)(=O)=O)c4cc[nH]c4n3)cc2F)CC1` [Example 49, N-(2-((2-((4-(4-ethylpiperazin-1-yl)-3-fluorophenyl)amino)-7H-pyrrolo[2,3-d]pyrimidine-4-yl)amino)phenyl)methanesulfonamide], with 858 nM; and `CCN1CCN(C2CCN(c3ccc(Nc4nc(Nc5ccccc5N(C)S(=O)(=O)CC)c5cc[nH]c5n4)cc3F)CC2)CC1` [Example 54, N-(2-((2-((4-(4-(4-ethylpiperazin-1-yl)piperidin-1-yl)-3-fluorophenyl)amino)-7H-pyrrolo[2,3-d]pyrimidine-4-yl)amino)phenyl)-N-methylethanesulfonamide], with 530 nM.

Another assay concerns Ba/F3 EGFR del19/T790M/C797S cells. Description: Ba/F3 EGFR del19/T790M/C797S cell growth inhibition test (CellTiter-Glo, 72 hours).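 Note: compounds tested in tenfold steps from 10 µM down to 0.1 nM, with luminescence read on a microplate reader.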
Settings: not given
It counts as cell-based.
Regarding `C=CC(=O)Nc1cc(Nc2nccc(-c3cn(C)c4ccccc34)n2)c(OC)cc1N(C)CCN(C)C` [Osimertinib, reference compound], the “proliferation inhibitory effect in Ba/F3 cell line (in words)” value is listed as “did not show proliferation inhibitory activity; also recorded: extremely insignificant inhibitory effect”.

Staying with this assay, now noted: Ba/F3 EGFR-Del19/T790M/C797S, 72 h, read-out: Ba/F3 EGFR del19/T790M/C797S cells, GI50.
In the case of `C=CC(=O)Nc1cc(Nc2nccc(-c3cn(C)c4ccccc34)n2)c(OC)cc1N(C)CCN(C)C` [Osimertinib, reference compound], the GI50 is > 1000 nM.

The same assay, now with this note: Ba/F3 cell line overexpressing EGFR del19/T790M/C797S, 72 hours, CellTiter-Glo; read-out: Ba/F3 EGFR del19/T790M/C797S cells, GI50.
Take `CN1CCN(c2ccc(Nc3nc(Nc4ccccc4N(C)S(C)(=O)=O)c4c(Cl)c[nH]c4n3)cc2F)CC1` [Example 57, N-(2-((5-chloro-2-((3-fluoro-4-(4-methylpiperazin-1-yl)phenyl)amino)-7H-pyrrolo[2,3-d]pyrimidine-4-yl)amino)phenyl)-N-methylmethanesulfonamide]: the GI50 turned out to be 7.9 nM.
The same measure, in the same setting: in the case of `CN1CCN(c2ccc(Nc3nc(Nc4ccccc4N(C)S(C)(=O)=O)c4c(Cl)c[nH]c4n3)c(F)c2F)CC1` [Example 58, N-(2-((5-chloro-2-((2,3-difluoro-4-(4-methylpiperazin-1-yl)phenyl)amino)-7H-pyrrolo[2,3-d]pyrimidine-4-yl)amino)phenyl)-N-methylmethanesulfonamide] it was 93 nM; in that of `CN1CCN(c2ccc(Nc3nc(Nc4ccccc4N(C)S(C)(=O)=O)c4c(Cl)c[nH]c4n3)cn2)CC1` [Example 59, N-(2-((5-chloro-2-((6-(4-methylpiperazin-1-yl)pyridin-3-yl)amino)-7H-pyrrolo[2,3-d]pyrimidine-4-yl)amino)phenyl)-N-methylmethanesulfonamide], 41 nM.
Still for that read-out and setting: in the case of `Cc1c[nH]c2nc(Nc3ccc(N4CCN(C)CC4)c(F)c3)nc(Nc3ccccc3N(C)S(C)(=O)=O)c12` [Example 60, N-(2-((2-((3-fluoro-4-(4-methylpiperazin-1-yl)phenyl)amino)-5-methyl-7H-pyrrolo[2,3-d]pyrimidine-4-yl)amino)phenyl)-N-methylmethanesulfonamide] it was 15 nM; in that of `CN1CCN(c2ccc(Nc3nc(Nc4ccccc4N(C)S(C)(=O)=O)c4c(C#N)c[nH]c4n3)cc2F)CC1` [Example 61, N-(2-((5-cyano-2-((3-fluoro-4-(4-methylpiperazin-1-yl)phenyl)amino)-7H-pyrrolo[2,3-d]pyrimidine-4-yl)amino)phenyl)-N-methylmethanesulfonamide], 46 nM.
`CN1CCN(c2ccc(Nc3nc(Nc4ccccc4N(C)S(C)(=O)=O)c4c(F)c[nH]c4n3)cc2F)CC1` [Example 62, N-(2-((5-fluoro-2-((3-fluoro-4-(4-methylpiperazin-1-yl)phenyl)amino)-7H-pyrrolo[2,3-d]pyrimidine-4-yl)amino)phenyl)-N-methylmethanesulfonamide]: the GI50 turned out to be 46 nM.
As to `CCN1CCN(c2ccc(Nc3nc(Nc4ccccc4N(C)S(C)(=O)=O)c4c(F)c[nH]c4n3)cc2F)CC1` [Example 63, N-(2-((2-((4-(4-ethylpiperazin-1-yl)-3-fluorophenyl)amino)-5-fluoro-7H-pyrrolo[2,3-d]pyrimidine-4-yl)amino)phenyl)-N-methylmethanesulfonamide], the GI50 turned out to be 64 nM.
Still for that read-out and setting: then `CN1CCN(C2CCN(c3ccc(Nc4nc(Nc5ccccc5N(C)S(C)(=O)=O)c5c(F)c[nH]c5n4)cc3F)CC2)CC1` [Example 64, N-(2-((5-fluoro-2-((3-fluoro-4-(4-(4-methylpiperazin-1-yl)piperidin-1-yl)phenyl)amino)-7H-pyrrolo[2,3-d]pyrimidine-4-yl)amino)phenyl)-N-methylmethanesulfonamide], with 28 nM; and `CN1CCN(c2ccc(Nc3nc(Nc4ccccc4N(C)S(C)(=O)=O)c4nc[nH]c4n3)cc2F)CC1` [Example 66, N-(2-((2-((3-fluoro-4-(4-methylpiperazin-1-yl)phenyl)amino)-9H-purine-6-yl)amino)phenyl)-N-methylmethanesulfonamide], with 63 nM; and `CN1CCN(c2ccc(Nc3nc(Nc4ccccc4N(C)S(C)(=O)=O)c4cn[nH]c4n3)cc2F)CC1` [Example 67, N-(2-((6-((3-fluoro-4-(4-methylpiperazin-1-yl)phenyl)amino)-1H-pyrazolo[3,4-d]pyrimidine-4-yl)amino)phenyl)-N-methylmethanesulfonamide], with 254 nM.

The same assay, now with this note: read-out: Ba/F3 EGFR del19/T790M/C797S cells, GI50.
`C=CC(=O)Nc1cc(Nc2nccc(-c3cn(C)c4ccccc34)n2)c(OC)cc1N(C)CCN(C)C` [Osimertinib, reference compound]: the GI50 came to 1120 nM.
